# Measured values from article PMC9901164, “Cloning and characterization of nitrate reductase gene in kelp Saccharina japonica (Laminariales, Phaeophyta)” (BMC Plant Biology, 2023).
# T1: rSjNR-S (Saccharina japonica, UniProt A0A977LKQ3)
# T1 construct: E. coli BL21(DE3) pCold-SUMO-10His, Ni-NTA, SUMO tag cut off
# T1 sequence (A0A977LKQ3 1-705): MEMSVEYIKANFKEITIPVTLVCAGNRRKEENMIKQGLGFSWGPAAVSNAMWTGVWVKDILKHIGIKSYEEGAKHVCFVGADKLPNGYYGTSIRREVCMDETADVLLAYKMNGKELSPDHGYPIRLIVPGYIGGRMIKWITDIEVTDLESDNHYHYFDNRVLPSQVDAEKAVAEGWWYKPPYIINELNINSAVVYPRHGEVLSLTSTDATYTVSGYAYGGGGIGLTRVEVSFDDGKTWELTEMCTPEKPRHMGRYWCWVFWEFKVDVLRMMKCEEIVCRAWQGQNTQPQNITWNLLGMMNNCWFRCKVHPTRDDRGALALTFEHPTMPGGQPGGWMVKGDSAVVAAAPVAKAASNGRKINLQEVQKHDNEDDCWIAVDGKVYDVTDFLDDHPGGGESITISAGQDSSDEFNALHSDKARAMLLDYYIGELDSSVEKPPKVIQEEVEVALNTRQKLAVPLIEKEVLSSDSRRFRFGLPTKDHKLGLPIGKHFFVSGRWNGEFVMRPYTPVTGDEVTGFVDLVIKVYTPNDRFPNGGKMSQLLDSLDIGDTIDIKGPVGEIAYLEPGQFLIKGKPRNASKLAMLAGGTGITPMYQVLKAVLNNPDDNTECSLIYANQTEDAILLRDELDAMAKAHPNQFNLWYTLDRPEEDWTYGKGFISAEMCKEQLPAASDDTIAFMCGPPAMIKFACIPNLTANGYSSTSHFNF
# B1: rSjNR-L (Saccharina japonica) (protein)
# chain: MASGIQSCKPEKADASLVNIKGHDYYKDTFVPPAEDVTEIDPRDKGTPDDWVPRHPELVRLTGRHPFNVEPPVWRIKDHGFISPNSLHYVRNHGAVPRIVQGDSHKVRFGGAIDKPMEMSVEYIKANFKEITIPVTLVCAGNRRKEENMIKQGLGFSWGPAAVSNAMWTGVWVKDILKHIGIKSYEEGAKHVCFVGADKLPNGYYGTSIRREVCMDETADVLLAYKMNGKELSPDHGYPIRLIVPGYIGGRMIKWITDIEVTDLESDNHYHYFDNRVLPSQVDAEKAVAEGWWYKPPYIINELNINSAVVYPRHGEVLSLTSTDATYTVSGYAYGGGGIGLTRVEVSFDDGKTWELTEMCTPEKPRHMGRYWCWVFWEFKVDVLRMMKCEEIVCRAWQGQNTQPQNITWNLLGMMNNCWFRCKVHPTRDDRGALALTFEHPTMPGGQPGGWMVKGDSAVVAAAPVAKAASNGRKINLQEVQKHDNEDDCWIAVDGKVYDVTDFLDDHPGGGESITISAGQDSSDEFNALHSDKARAMLLDYYIGELDSSVEKPPKVIQEEVEVALNTRQKLAVPLIEKEVLSSDSRRFRFGLPTKDHKLGLPIGKHFFVSGRWNGEFVMRPYTPVTGDEVTGFVDLVIKVYTPNDRFPNGGKMSQLLDSLDIGDTIDIKGPVGEIAYLEPGQFLIKGKPRNASKLAMLAGGTGITPMYQVLKAVLNNPDDNTECSLIYANQTEDAILLRDELDAMAKAHPNQFNLWYTLDRPEEDWTYGKGFISAEMCKEQLPAASDDTIAFMCGPPAMIKFACIPNLTANGYSSTSHFNF
# notes: E. coli BL21(DE3) pCold-SUMO-10His, Ni-NTA, SUMO tag cut off
# Legend:
# [1] = target: T1, rSjNR-S; test: Griess colorimetric nitrite assay, single concentration; format: biochemical; conditions: 5 mM KNO3, 0.2 mM NADH, 100 mM HEPES pH 7.6, 10 μM FAD, 10 μM sodium molybdate, 10 mM MgCl2, 5 mM DTT, 24 °C
# [2] = substrate: O=[N+]([O-])O; test: Griess colorimetric nitrite assay, Michaelis-Menten nonlinear regression; format: biochemical, Saccharina japonica; conditions: 0.2 mM NADH, 100 mM HEPES pH 7.6, 10 μM FAD, 10 μM sodium molybdate, 10 mM MgCl2, 5 mM DTT, 24 °C, KNO3 0-20 mM, apparent
molecule,measurement,setting,value
O=[N+]([O-])O [KNO3],"Griess colorimetric nitrite assay, single concentration",[1],both rSjNR-L and rSjNR-S showed NR activity in vitro
NC(=O)C1=CN([C@@H]2O[C@H](COP(=O)(O)OP(=O)(O)OC[C@H]3O[C@@H](n4cnc5c(N)ncnc54)[C@H](O)[C@@H]3O)[C@@H](O)[C@H]2O)C=CC1 [NADH],"Griess colorimetric nitrite assay, single concentration",[1]; electron donor,the activity of rSjNR-S was lower than that of rSjNR-L
B1,Km,[2],0.42 (± 0.059) mM
